These results are taken from US9775903B2, “1-deoxy analogs of 1,25-dihydroxyvitamin D3 compounds” (JOHNS HOPKINS UNIVERSITY, priority 2010, dated 2017).

Series [1] deals with CYP24 transcription in HPK1a-ras cells. The series can be described thus: CYP24 transcription in HPK1a-ras cells (real-time PCR). It is filed as cell-based, human. As to conditions: for induction of CYP24 transcription compared to vehicle: 6 or 7 hours; for concentration at which significant transcriptional activity (CYP24) is displayed / CYP24 transcription activity (in words): HPK1a-ras cells; for concentration at which significant transcriptional activity (CYP24) is displayed: 6 hr; for CYP24 transcription activity (in words): which express CYP27B1. On the procedure:
(§1) HPK1a-ras cells were maintained in Dulbecco's Modified Eagle's medium (DMEM) supplemented with 10% Fetal Bovine Serum and plated at 1×10^5 cells/well in 24-well plates. The media was exchanged after 24 hours for DMEM containing 1% Bovine Serum Albumin. Cells were treated in duplicate with Ibii and control compounds at various concentrations (10^−6 to 10^−9M) for 6 or 7 hours. Extraction of cellular RNA was performed using Trizol® (Invitrogen). Aliquots of RNA were reverse-transcribed to cDNA using random hexamers and Thermoscript reverse transcriptase according to the manufacturer's instructions (Invitrogen). Quantitative real-time PCR was performed using an ABI StepOnePlus system using the Taqman Universal PCR Master Mix. PCR reaction volumes of 20 μL were used with 50 cycles of amplification. Each cDNA sample was tested in duplicate using TaqMan® gene expression assays with the following ID numbers: human GAPDH (Hs99999905_m1), human CYP24 (Hs00167999_m1). The real-time PCR results were analyzed using the StepOne system software V2.1. Gene expression levels were calculated using the comparative CT method, and normalized to the GAPDH expression levels.
(§2) CYP24a1 transcription activity in HPK1a-ras cells was determined for prodrugs Iaii and IIaii. As with the protocol described in Example 7, HPK1a-ras cells were maintained in Dulbecco's Modified Eagle's medium (DMEM) supplemented with 10% Fetal Bovine Serum and plated at 1×10^5 cells/well in 24-well plates. Prior to treatment with compounds, cells were washed with PBS and replaced with DMEM containing 1% Bovine Serum Albumin. Cells were treated in duplicate with vehicle or compounds at various concentrations (10^-6 to 10^-9 M) for 6 hr at 37° C. Media was removed and extraction of cellular RNA was performed using Trizol® (Invitrogen). Aliquots of RNA were reverse-transcribed to cDNA using oligo dT primers and Thermoscript reverse transcriptase according to the manufacturer's instructions (Invitrogen). Quantitative real-time PCR was performed using an ABI StepOnePlus system using the Taqman Universal PCR Master Mix. PCR reaction volumes of 20 μl were used with 50 cycles of amplification. Each cDNA sample was tested in duplicate using TaqMan® gene expression assays with the following ID numbers: human GAPDH (Hs99999905_m1), human CYP24 (Hs00167999_m1). The real-time PCR results were analyzed using the StepOne system software V2.1. Gene expression levels were calculated using the comparative CT method, and normalized to the GAPDH expression levels

Series [2] deals with CYP27b1 transcription in HPK1a-ras cells. Nature of the series: CYP27b1 transcription in HPK1a-ras cells (real-time PCR). It is filed as cell-based, human. The method, then: as §1, with “duplicate.” for “duplicate using TaqMan® gene expression assays with the following ID numbers: human GAPDH (Hs99999905_m1), human CYP24 (Hs00167999_m1).”
For orientation: In qPCR the cycle at which signal appears reflects the starting amount.

For series [3], the system named is PTH. Nature of the series: Serum PTH in adenine-induced uremic rats. It is filed as in vivo, male Sprague-Dawley rats. The conditions noted are these: adenine treated rats. The text has this: (§3) Day 0 is the first day of dosing.
Another series relates to FGF23. Nature of the series: Serum FGF23 in adenine-induced uremic rats. In kind it is in vivo, male Sprague-Dawley rats. The conditions noted are these: adenine treated rats, i.v. 0.2-10 mcg/kg, three times per week for two weeks.
From the text: as §3

Series [4] deals with PTH. The series can be described thus: PTH in vitamin D deficient rats, IV and oral dosing. It is filed as in vivo, Sprague Dawley rats. The conditions noted are these: 160 μg/kg, 3×/week for five days. On the procedure: (§4) Vitamin D deficient Sprague Dawley rats were treated with Ibii 3×/week for five days by IV and oral routes, according to the Table below: […]
Series [5] can be described thus: Body weight in vitamin D deficient rats. It is filed as in vivo, Sprague Dawley rats. The conditions noted are these: IV and oral, 160 μg/kg. The method, then: as §4
In series [6] the test system is CYP24 expression in PMA-stimulated U937 cells. Nature of the series: CYP24 expression in PMA-stimulated U937 cells, which do not substantially express CYP27B1. In kind it is cell-based, human. The conditions noted are these: concentrations up to 100 nM, 6 hr. On the procedure: PMA-stimulated U937 cells were maintained in RPMI media supplemented with 10 mM HEPES, 1 mM sodium pyruvate, 0.1 mM non-essential amino acids and 10% Fetal Bovine Serum at optimal cell density (between 1×10^5 cells/mL and 2×10^6 cells/mL). Prior to treatment, cells were pelleted by centrifugation and resuspended to a concentration of 5×10^5 cells/mL. Cells were then treated with phorbol myristate acetate (PMA) at a final concentration of 20 ng/ml. To each well of a 24-well plate, 1 ml of cell suspension was added, which was incubated overnight at 37° C.+5% CO2. The following day, RPMI media was replaced with fresh media and cells were treated in triplicate with vehicle or compounds at various concentrations (10^-7 to 10^-9 M) for 6 hr at 37° C. Media was removed and extraction of cellular RNA was performed using Trizol® (Invitrogen). Aliquots of RNA were reverse-transcribed to cDNA using oligo dT primers and Thermoscript reverse transcriptase according to the manufacturer's instructions (Invitrogen). Quantitative real-time PCR was performed using an ABI StepOnePlus system using the Taqman Universal PCR Master Mix. PCR reaction volumes of 20 μl were used with 50 cycles of amplification. Each cDNA sample was tested in duplicate using TaqMan® gene expression assays with the following ID numbers: human GAPDH (Hs99999905_m1), human CYP24 (Hs00167999_m1). The real-time PCR results were analyzed using the StepOne system software V2.1. Gene expression levels were calculated using the comparative CT method, and normalized to the GAPDH expression levels. The U937 cells have a low level of expression of CYP27B1 mRNA, for example compared to HPK1a-ras cells.

The target of series [7] is T1, VDR (Homo sapiens, UniProt P11473).
T1 sequence (P11473 1-427): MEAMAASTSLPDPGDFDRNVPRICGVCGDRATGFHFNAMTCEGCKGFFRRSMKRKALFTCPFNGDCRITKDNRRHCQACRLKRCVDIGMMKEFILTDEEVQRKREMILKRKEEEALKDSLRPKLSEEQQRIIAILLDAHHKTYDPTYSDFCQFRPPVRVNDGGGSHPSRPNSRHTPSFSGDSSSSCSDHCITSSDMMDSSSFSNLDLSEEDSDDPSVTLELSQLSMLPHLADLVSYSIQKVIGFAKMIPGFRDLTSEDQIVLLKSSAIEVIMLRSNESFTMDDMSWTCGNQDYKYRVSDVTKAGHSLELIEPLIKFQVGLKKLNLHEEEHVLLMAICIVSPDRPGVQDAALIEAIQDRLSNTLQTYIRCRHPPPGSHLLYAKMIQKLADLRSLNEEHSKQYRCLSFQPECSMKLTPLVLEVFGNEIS
The series can be described thus: Binding to the Vitamin D Receptor (competition with [26,27-methyl-3H]-1α,25(OH)2D3).
Experimental: Unbound radioactive ligand was removed by incubation with dextran-charcoal for 30 min on ice and pelleted by centrifugation at 2000 rpm for 10 min at 4° C. The radioactivity in 100 mL of the supernatant was measured using a scintillation counter. The control reactions contained either no VDR protein (background) or no competing ligand (maximum binding). The mean background binding was subtracted and the data divided by the mean maximum binding to yield B/Bmax values. The concentration necessary to displace 50% of [26,27-methyl-^3H]-1α,25(OH)2D3 from VDR was calculated as the B50.

The target in series [8] is T1, VDR. As to conditions: relative to active Vitamin D hormones / 1,25-hydroxyvitamin D3; cited from earlier work.
The target of another series is T2, CYP24 (Homo sapiens, UniProt Q07973).
T2 construct: CYP24a1 relative transcription in HPK1a-ras cells treated for 6 hours with calcitriol; endogenous in cells; host or cells: HPK1a-ras cells
T2 sequence (Q07973 36-514): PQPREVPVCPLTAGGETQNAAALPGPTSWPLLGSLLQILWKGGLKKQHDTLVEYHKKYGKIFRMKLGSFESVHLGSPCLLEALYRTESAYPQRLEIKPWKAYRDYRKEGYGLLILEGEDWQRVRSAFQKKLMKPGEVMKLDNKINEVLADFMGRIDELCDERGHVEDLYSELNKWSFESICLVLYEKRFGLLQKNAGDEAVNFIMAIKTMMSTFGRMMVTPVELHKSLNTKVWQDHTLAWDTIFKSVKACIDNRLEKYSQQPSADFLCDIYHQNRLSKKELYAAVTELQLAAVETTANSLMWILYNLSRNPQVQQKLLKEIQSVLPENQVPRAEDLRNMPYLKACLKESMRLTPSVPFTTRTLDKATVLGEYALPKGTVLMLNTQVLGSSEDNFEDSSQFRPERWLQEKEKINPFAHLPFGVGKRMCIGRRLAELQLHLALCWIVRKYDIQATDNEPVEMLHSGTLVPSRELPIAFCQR
Nature of the series: CYP24 inhibitory activity: CYP24a1 transcription in HPK1a-ras cells treated with calcitriol plus test compound. In kind it is cell-based. As to conditions: 1 μM analog with 0.1 nM or 1 nM calcitriol, 6 hours. The method, then: as §2, with “Aliquots of RNA were reverse-transcribed to cDNA using oligo dT primers and Thermoscript reverse transcriptase according to the manufacturer's instructions (Invitrogen).” left out, “PCR reaction volumes of 20 μl were used with 50 cycles of amplification. Each cDNA sample was tested in duplicate using TaqMan® gene expression assays with the following ID numbers: human GAPDH (Hs99999905_m1), human CYP24 (Hs00167999_m1).” left out
Transcriptional activity of calcitriol and Prodrugs was determined by CYP24a1 relative transcription in HPK1a-ras cells treated for 6 hours with calcitriol, combinations of calcitriol with Prodrugs Icii, Idii, and Ieii, and combinations of calcitriol with 1-hydroxylated active forms of Prodrugs Icii, Idii, and Ieii which are known CYP24 inhibitors.

On to `C=C1CCC(O)CC1=CC=C1CCCC2(C)C(C(C)CC=CS(=O)(=O)C(C)(C)C)=CCC12` (stereo not drawn) [Prodrug Ibii, 4-Methylene-3-(2-{7α-methyl-1-[1-methyl-4-(2-methyl-propane-2-sulfonyl)-but-3-enyl]-3,3α,5,6,7,7a-hexahydro-inden-4-ylidene}-ethylidene)-cyclohexanol], for which the “induction of CYP24 transcription compared to vehicle” value in series [1] (100 nM, HPK1aRas cells) was “about 100 fold”; in [1] (1 μM, HPK1aRas cells) it was “about 500 fold”. Besides, the “concentration at which significant transcriptional activity (CYP24) is displayed” value in series [1] was 100 nM. The “potency in CYP24 transcription relative to its 1-hydroxylated analog” value in series [1] (HPK1aRas cells) is “about 1/100”. In addition, the “induction of CYP24A1 transcription at lower concentrations” value in series [1] (concentrations below 100 nM, HPK1aRas cells) is “did not significantly induce”. For the same compound, the “transcription of CYP27b1 compared to vehicle” value in series [2] is given as “not significantly affected”. Besides, the “potency in decreasing circulating iPTH levels versus the 1-hydroxy active form” value in the series with PTH [3] (i.v.) is listed as “comparable to but lower than the 1-hydroxy active form”. In the series on PTH [3] (i.v. 0.2-10 mcg/kg, three times per week for two weeks), the “circulating iPTH levels in serum” value was “can lower circulating iPTH levels”. In addition, in the series on FGF23, the “effect on serum FGF23 levels” value is reported as “does not increase serum FGF23 levels”. Moreover, the “effect on PTH” value in the series on PTH [4] (intravenous) and in the series on PTH [4] (oral) was “can effectively lower PTH” in each case. Moreover, the “effects on body weight (overt toxicity)” value in series [5] is “does not exhibit overt toxicity”. For the same compound, the “relative CYP24 expression (compared to calcitriol)” value in series [6] is “inactive”. The IC50 at VDR [7] (read-out: B50 (concentration necessary to displace 50% of [26,27-methyl-3H]-1α,25(OH)2D3 from VDR), in vitro, human recombinant VDR) was > 1 µM.

Take `C=C1CCC(O)CC1=CC=C1CCCC2(C)C1CCC2C(C)CCC(F)(F)S(=O)(=O)C(C)(C)C` (stereo not drawn) [Prodrug Iaii, 3-(2-{1-[4,4-Difluoro-1-methyl-4-(2-methyl-propane-2-sulfonyl)-butyl]-7α-methyl-3,3α,5,6,7,7a-hexahydro-inden-4-ylidene}-ethylidene)-4-methylene-cyclohexanol]: in [1], the “concentration at which significant transcriptional activity (CYP24) is displayed” value is given as 1000 nM and the “CYP24 transcription activity (in words)” value was “active”. Besides, the “relative CYP24 expression (compared to calcitriol)” value in [6] is “inactive”. The “binding to the VDR (in words)” value at VDR [7] is recorded as “do not bind to the VDR”.

On to `C=C1CC[C@H](O)C/C1=C/C=C1\CCC[C@]2(C)C([C@H](C)CCCC(C)(C)O)CC[C@@H]12` (stereo partly drawn) [25-hydroxyvitamin D3], for which the “affinity for the VDR, fold lower than the active Vitamin D hormone” value at VDR [8] is given as 100 fold.

`C=C1CCC(O)CC1=CC=C1CCCC2(C)C1CCC2C(C)CCS(=O)(=O)c1ccccc1` (stereo not drawn) [Prodrug Idii, 3-{2-[1-(3-Benzenesulfonyl-1-methyl-propyl)-7α-methyl-octahydro-inden-4-ylidene]-ethylidene}-4-methylene-cyclohexanol]: in [6], the “relative CYP24 expression (compared to calcitriol)” value is “inactive”. For the same compound, the “CYP24 inhibitory effect (increased CYP24a1 transcription with calcitriol)” value at CYP24 was “CYP24 inhibitory effect”.

With `C=CCO/N=C(\CCC[C@@H](C)C1=CC[C@H]2/C(=C/C=C3/C[C@@H](O)CCC3=C)CCC[C@]12C)C(C)(C)C` [Prodrug IIaii, 7-{4-[2-(5-Hydroxy-2-methylene-cyclohexylidene)-ethylidene]-7α-methyl-3α,4,5,6,7,7a-hexahydro-3H-inden-1-yl}-2,2-dimethyl-octan-3-one 0-allyl-oxime], in [1], the “concentration at which significant transcriptional activity (CYP24) is displayed” value worked out at 1000 nM and the “CYP24 transcription activity (in words)” value is reported as “active”. Besides, the “relative CYP24 expression (compared to calcitriol)” value in series [6] is “inactive”. For the same compound, on VDR [7], the “binding to the VDR (in words)” value is reported as “do not bind to the VDR”.

Consider `C=C1CCC(O)CC1=CC=C1CCCC2(C)C1CCC2C(C)CCCS(=N)(=O)c1ccccc1` (stereo not drawn) [Prodrug Icii, 3-{2-[1-(4-Benzenesulfoximine-1-methyl-butyl)-7α-methyl-octahydro-inden-4-ylidene]-ethylidene}-4-methylene-cyclohexanol], for which the “relative CYP24 expression (compared to calcitriol)” value in series [6] is “inactive”. The “CYP24 inhibitory effect (increased CYP24a1 transcription with calcitriol)” value on CYP24 is given as “CYP24 inhibitory effect”.
